# According to US11964990B2, “1,3,4,7-tetrahydro-2H-pyrrolo[3′,2′:5,6]pyrido[2,3-b][1,4]oxazepine bcl-2 inhibitors” (AbbVie Inc., priority 2022, dated 2024):
# Key:
# RS4;11 cells = assay: Cell viability assay (CellTiter-Glo) in RS4;11 cell line; type: cell-based; settings: 24 hours, 10% Human Serum, 50% decrease in cell viability
# How it was run: (§1)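 RS4;11 or Molt-4 cells (3000 per well) in RPMI 1640 with 10% human serum treated with compound for 24 h, 5% CO2. Viability measured by CellTiter-Glo as percent of control; EC50 from sigmoidal dose-response curves.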
# Molt-4 cells = assay: Cell viability counter screen assay (CellTiter-Glo) in Molt-4 cells; type: cell-based; settings: 24 hours, 10% Human Serum, 50% decrease in cell viability
# How it was run: as §1
# Bcl-2 protein = Bcl-2 protein (Homo sapiens (Human), UniProt P10415); assay: TR-FRET binding assay, Bcl-2 (F-Bak peptide probe); settings: Bak BH3 peptide probe, Wang's equation
# Protocol: (§2) Determination of the utility of compounds having Formula (I) or Formula (II) as binders to and inhibitors of anti-apoptotic Bcl-2 proteins was performed using the Time Resolved-Fluorescence Resonance Energy Transfer (TR-FRET) Assay. Tb-anti-GST antibody was purchased from Invitrogen (Catalog No. PV4216).
# A Bcl-2 human encoding sequence was cloned into a pET41A vector (Novagen). The protein was expressed with E. coli. BL21(DE3)-T1R strain in OETB autoinduction medium at 30° C. for 25 hours. The cell pellets were resuspended in lysis buffer (50 mM Tris, 140 mM NaCl, 1 mM DTT, 10% Glycerol, 2 mM MgCl2, pH 7.3) and lysed with Microfluidizer. The Bcl-2 protein in clarified cell-lysate was purified with affinity chromatography (GST and Ni-NTA). The eluate was loaded onto a Superdex 75 column and further purified with a Q Sepharose column. The protein was purified on a phenyl hydrophobic interaction column and dialyzed in the storage buffer (50 mM Tris, 50 mM NaCl, 2 mM DTT, pH 7.5) and stored at −80° C.
# (§3) […] of a protein (Bcl-2 or Bcl-xL)/probe/antibody mixture pre-equilibrated for one hour in assay buffer was added to each well at final concentrations listed in Table 6 below.
# (§4) The samples were then mixed on a shaker for 1 minute and equilibrated for an additional 3 hours at room temperature. For each assay plate, a probe/antibody and protein/antibody/probe mixture were included as a negative and a positive control, respectively. Fluorescence was measured on the Envision (Perkin Elmer) using a 340/35 nm excitation filter and 520/525 (F-Bak) and 495/510 nm (Tb-labeled anti-GST antibody) emission filters. Inhibition constants (Ki) were determined using Wang's equation (Wang FEBS Lett. 1995, 360, 111-114). The TR-FRET assay can be performed in the presence of varying concentrations of human serum (HS) to determine apparent half maximal inhibitory concentration (IC50) after HS protein binding.
# (§5) Inhibition constants were determined using Wang's equation (Wang FEBS Lett. 1995, 360:111-4).
# Bcl-xL protein = Bcl-xL protein (Homo sapiens (Human), UniProt Q07817); assay: TR-FRET binding assay, Bcl-xL (F-Bak peptide probe); settings: Bak BH3 peptide probe, Wang's equation
# Protocol: as §2
# A human Bcl-xL encoding sequence was cloned into a pET41A vector. The protein was expressed with E. coli. BL21(DE3)-T1R strain in OETB autoinduction medium at 30° C. for 25 hours. The cell pellets were resuspended in lysis buffer (50 mM Tris, 140 mM NaCl, 1 mM DTT, 10% Glycerol, 0.1% Triton X-100, pH 7.5) and lysed with Microfluidizer. The Bcl-xL protein in clarified cell-lysate was purified with GST affinity chromatography. The eluate was dialyzed in the storage buffer (1×PBS, 10% Glycerol, 2 mM DTT, 1 mM Sodium Azide, pH 7.4) and stored at −80° C.
# as §3, §4, §5
# Bcl-xL protein, sequence (Q07817 other isoform, or with tags, fused parts or gaps): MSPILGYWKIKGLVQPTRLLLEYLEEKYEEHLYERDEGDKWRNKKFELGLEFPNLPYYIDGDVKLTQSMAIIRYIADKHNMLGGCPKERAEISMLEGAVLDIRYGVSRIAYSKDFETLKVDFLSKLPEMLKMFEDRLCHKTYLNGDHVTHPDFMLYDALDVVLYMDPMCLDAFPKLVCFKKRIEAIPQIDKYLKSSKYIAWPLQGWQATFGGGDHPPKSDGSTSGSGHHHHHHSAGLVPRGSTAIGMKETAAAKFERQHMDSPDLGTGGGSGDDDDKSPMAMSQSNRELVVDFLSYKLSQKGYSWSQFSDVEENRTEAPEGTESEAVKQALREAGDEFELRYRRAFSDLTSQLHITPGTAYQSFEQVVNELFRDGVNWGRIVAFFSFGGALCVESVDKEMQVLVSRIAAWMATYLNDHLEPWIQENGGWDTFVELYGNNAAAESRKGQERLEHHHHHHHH
# Bcl-2 protein, sequence (P10415 other isoform, or with tags, fused parts or gaps): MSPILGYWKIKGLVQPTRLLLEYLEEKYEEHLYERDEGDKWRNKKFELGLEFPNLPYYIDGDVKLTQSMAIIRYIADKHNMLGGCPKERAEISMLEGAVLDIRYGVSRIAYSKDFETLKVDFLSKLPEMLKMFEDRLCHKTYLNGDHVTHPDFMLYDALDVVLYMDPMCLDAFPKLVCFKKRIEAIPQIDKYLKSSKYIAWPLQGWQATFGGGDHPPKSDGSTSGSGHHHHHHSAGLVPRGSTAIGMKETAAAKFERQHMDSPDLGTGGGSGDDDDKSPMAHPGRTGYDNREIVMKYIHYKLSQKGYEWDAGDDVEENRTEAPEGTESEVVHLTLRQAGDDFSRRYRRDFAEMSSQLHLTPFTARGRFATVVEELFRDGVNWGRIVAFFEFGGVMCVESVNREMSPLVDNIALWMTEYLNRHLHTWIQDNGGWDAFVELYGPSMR
Structure (SMILES),EC50 (RS4;11 cells) [nM],EC50 (Molt-4 cells) [nM],Ki (Bcl-2 protein) [nM],Ki (Bcl-xL protein) [nM]
"COC[C@]1(F)C[C@H](CNc2ccc(S(=O)(=O)NC(=O)c3ccc(N4CCN5CC6=C(c7ccc(Cl)cc7)CC(C)(C)C[C@H]6OCCCOC[C@@H]5C4)cc3N3CCCOc4nc5[nH]ccc5cc43)cc2[N+](=O)[O-])C1 [Example 47, 4-((4aS,10aR)-14-(4-chlorophenyl)-12,12-dimethyl-1,2,4a,5,8,9,10a,11,13,15-decahydro-7H,12H-benzo[f]pyrazino[2,1-c][1,8]dioxa[4]azacycloundecin-3(4H)-yl)-2-(3,4-dihydro-2H-pyrrolo[3′,2′:5,6]pyrido[2,3-b][1,4]oxazepin-1(7H)-yl)-N-((4-((((1r,3r)-3-fluoro-3-(methoxymethyl)cyclobutyl)methyl)amino)-3-nitrophenyl)sulfonyl)benzamide]",10.9,> 10000,0.28,25.8
"CC1(C)CC(c2ccc(Cl)cc2)=C2CN3CCN(c4ccc(C(=O)NS(=O)(=O)c5cnc(OC[C@H]6CC[C@](C)(O)CC6)c(Cl)c5)c(N5CCCOc6nc7[nH]ccc7cc65)c4)C[C@H]3COCCCO[C@@H]2C1 [Example 42, N-((5-chloro-6-(((1r,4r)-4-hydroxy-4-methylcyclohexyl)methoxy)pyridin-3-yl)sulfonyl)-4-((4aS,10aR)-14-(4-chlorophenyl)-12,12-dimethyl-1,2,4a,5,8,9,10a,11,13,15-decahydro-7H,12H-benzo[f]pyrazino[2,1-c][1,8]dioxa[4]azacycloundecin-3(4H)-yl)-2-(3,4-dihydro-2H-pyrrolo[3′,2′:5,6]pyrido[2,3-h][1,4]oxazepin-1(7H)-yl)benzamide]",11.3,> 10000,0.159,25.1
"CC1(C)CC(c2ccc(Cl)cc2)=C2CN3CCN(c4ccc(C(=O)NS(=O)(=O)c5ccc(NCC6CCCCO6)c([N+](=O)[O-])c5)c(N5CCCOc6nc7[nH]ccc7cc65)c4)C[C@H]3COCCCO[C@@H]2C1 (stereo partly drawn) [Example 45, 4-((4aS,10aR)-14-(4-chlorophenyl)-12,12-dimethyl-1,2,4a,5,8,9,10a,11,13,15-decahydro-7H,12H-benzo[f]pyrazino[2,1-c][1,8]dioxa[4]azacycloundecin-3(4H)-yl)-2-(3,4-dihydro-2H-pyrrolo[3′,2′:5,6]pyrido[2,3-b][1,4]oxazepin-1(7H)-yl)-N-((3-nitro-4-(((tetrahydro-2H-pyran-2-yl)methyl)amino)phenyl)sulfonyl)benzamide]",10.7,> 10000,0.238,27.8
"CC1(C)CC(c2ccc(Cl)cc2)=C2CN3CCN(c4ccc(C(=O)NS(=O)(=O)c5ccc(OC[C@H]6CC[C@](C)(O)CC6)c(Cl)c5)c(N5CCCOc6nc7[nH]ccc7cc65)c4)C[C@H]3COCCCO[C@@H]2C1 [Example 43, N-((3-chloro-4-(((1r,4r)-4-hydroxy-4-methylcyclohexyl)methoxy)phenyl)sulfonyl)-4-((4aS,10aR)-14-(4-chlorophenyl)-12,12-dimethyl-1,2,4a,5,8,9,10a,11,13,15-decahydro-7H,12H-benzo[f]pyrazino[2,1-c][1,8]dioxa[4]azacycloundecin-3(4H)-yl)-2-(3,4-dihydro-2H-pyrrolo[3′,2′:5,6]pyrido[2,3-b][1,4]oxazepin-1(7H)-yl)benzamide]",17.7,> 10000,0.0853,29.7
